Data reported in patent publication US5698674A, “Triheterocyclic peptides capable of binding the minor and major grooves of DNA” (The Regents of the University of California, priority 1994, dated 1997).
Several values for one entry are separate records, joined by “and”; a condition that tells them apart may be missing. Equal values may be shown once. Entries after “also recorded” stand apart in the source; their conditions may differ. Read-outs that look alike come from different tables or passages of the source.

Key:
[1] = tested on: d(CGCA3 T3 GCG (SEQ ID NO:3))2; test: Dynamics of ligand exchange in the 1:1 complex (ROESY NMR); type: binding; conditions: 10° C
Description: The data matrix was zero filled to 2K and appodized with a gaussian function to give a line broadening of 1 Hz in both frequency domains. The ROESY experiment was recorded at 10° C. using the Kessler pulse sequence (Kessler, H.; Griesinger, C.; Kerssebaum, R.; Wagner, E.: Ernst, R. J Am. Chem. Soc. 1987, 109, 607) with a mixing time of 50 ms and a locking field strength of 2.5 kHz.
The linearity of the NOE build-up with tm was checked for most of the dsDNA proton interactions between 50 and 180 ms and a 5-20 fold increase was found in the NOE volume integrals from the 50 to 180 ms mixing times. The exchange rate (kex) was calculated from eq 3 as follows:
kex =ln((1+R)/2.tau.m (1-R)), s^-1 eq(3) […]
The free energy of activation, ΔG*, for this exchange process at a certain temperature, T (K), was calculated from eq 4 (Gunther, H. "NMR Spectroscopy: An Introduction", John Wiley, New York, 1980, p. 241).
Exchanges between two equivalent binding sites have been proposed for dsDNA complexes of distamycin (Pelton et al., 1990, supra) and netropsin (Patel et al., 1985, supra). If we consider that the exchange is governed by a "flip-flop" mechanism (Pelton et al., 1990, supra) (FIG. 18), not excluding the possible existence of a fast sliding motion of 6b in the minor groove, the rate of exchange can be calculated (Experimental Section).

[2] = tested on: 167 bp EcoRI/RsaI pBR322 restriction fragment; test: DNase I footprint analysis; type: binding
[3] = tested on: .phi.X-174-RF DNA HaeIII restriction digest fragments; test: Electrophoretic mobility shift assay; type: binding; conditions: for RL vs. agent concentration: 1078 bp fragment; for order of effectiveness in increasing the apparent length of DNA fragments: RL values; for change in electrophoretic behavior: 150 μM
[4] = target: d(GGCGCAAATTTGGCGG)(SEQ ID NO:1)/d(CCGCCAAATTTGCGCC)(SEQ ID NO:2); test: Hoechst 33258 (Ht) fluorescence competition, equilibrium association constants with hexadecamer duplex; type: binding; conditions: for log KL1: association constant of first ligand, H2O, 10 mM phosphate buffer, pH 7.0, 10 mM NaCl, 35° C, for Ht = log KHt1, Dm, 2, 5a-c recalculated from previously collected data; for log KL1 / log KL2 / log KHtL: mean ± SD; for log KL1 / log KL2: Ht; for log KL2: association constant of second ligand, for Ht = log KHt2, Dm, 2, 5a-c recalculated; for log KHtL: binding of L to DNA:Ht; for log KL1 KL2: complex association constant
Description: Equilibrium constants for the association of 6a and 6b with oligomeric DNA were assessed by the complexing of tren-microgonotropen-a and -b to the hexadecamer d(GGCGCAAATTTGGCGG)(SEQ ID NO:1)/d(CCGCCAAATTTGCGCC)(SEQ ID NO:2) in aqueous solutions at 35° C. (2.8 mL solutions containing 0.01M phosphate buffer, pH 7.0, and 0.01M NaCl).
These reactions were followed by the competition of the dye Hoechst 33258 (Ht) with 6a and 6b for the A3 T3 minor groove binding site (an extension of Ht alone binding to dsDNA). The concentrations of 6a and 6b were confirmed by ^1 H NMR peak integration of resonances with those of an equivalent concentration of mesitoate.
As shown previously (Browne, K. A.; He, G.-X.; Bruice, T. C. J. Am. Chem. Soc. 1993, 115, 7072), monitoring the increase in fluorescence intensity as the association of Ht with the hexadecamer displaces prebound nonfluorescent ligands is an excellent method for determining equilibrium binding constants. FIG. 17 relates the equilibrium constants for the complexing of one and two Ht species to the hexadecamer with one and two L (where L=6a or 6b) binding to the hexadecamer, plus equilibrium constants for the simultaneous binding of one Ht and one L at the same site. [formula]
Eq 1, derived from FIG. 17, relates each of the equilibrium binding constants, the total fluorescence (Σθ), and [L] in terms of fluorescence (F) and [Ht]. The rationale behind FIG. 17 and the subsequent derivation of eq 1 have been described in considerable detail (Browne, et al., 1993, supra). The values of log KHt1 =7.6 and log KHt2 =9.1 used were determined from a reevaluation of data previously collected (Browne, et al., 1993, supra) and are very close to the previously determined values. A concentration independent static quenching term, Q', is included in eq 1 to account for the lessened fluorescent emission of the DNA:Ht:L complex compared to the DNA:Ht and DNA:Ht2 complexes.
The equilibrium association constants calculated as best fits to the experimental data points for 6a and 6b with eq 1 are presented in Table I. Plots of F vs. [Ht] using these constants at 8.0×10^-9, 1.0×10^-8, and 1.2×10^-8 M ligand and 5.0×10^-9 M in hexadecamer duplex are shown in FIGS. 3a and 3b.
Reagents and methods for DNA binding studies were exactly the same as used previously (He, et al., 1993, supra; Browne, et al., 1993, supra) unless stated otherwise. The values for the equilibrium constants for 2, 5a,b,c, Dm, and Ht were recalculated from previously collected data (Browne, et al., 1993, supra) using the curve fitting program SigmaPlot® 4.1.4 (Jandel Scientific, San Rafael, Calif.). The equilibrium constants for 6a and 6b were calculated with SigmaPlot® 4.1.4 using the reevaluated constants for Ht (KHt1 and KHt2).

[5] = tested on: calf thymus topoisomerase I; test: Topoisomerase I inhibition assays (relaxation of supercoiled pBR322); type: biochemical; conditions: for inhibition of topoI relaxation of supercoiled pBR322: agent preincubated with DNA 1 hr before 18 hr topoI reaction, 37° C; for inhibition of topoI after partial relaxation: added after 0.5 hr topoI incubation, then 18 hr
Description: Inhibition of topoI's action on supercoiled pBR322 by 6b was compared to inhibition by Dm and 5b (dien-microgonotropen-b). In the first set of experiments, each agent was allowed to incubate with the DNA for 1 hr prior to the 18 hr topoI reaction period.
In closely related experiments, the mode of inhibition of topoI was examined. This was accomplished by allowing the supercoiled DNA to be partially relaxed for 0.5 hr with topoI before any other DNA ligands were added (FIG. 6).
The buffer for all of the 50 μL reactions was composed of 50 mM Tris-HCl, pH 7.5, 50 mM KCl, 10 mM MgCl2, and 1 mM EDTA that was filtered through a sterile 0.45μ Gelman Sciences Acrodisc. Every reaction mixture contained 1 μg of supercoiled pBR322 plasmid (Pharmacia) and, except for the supercoiled control, every reaction mixture included 10 units of calf thymus topoisomerase I (Bethesda Research Laboratories).
All reactions were extracted twice with water-saturated phenol, extracted once with chloroform, and precipitated with ammonium acetate and ethanol.
The different helical forms of pBR322 created by the relaxation assays were electrophoretically separated through a 4% NuSieve 3:1 (hydroxyethylated) agarose gel (vertical, 0.8 mm) in 40 mM Tris-acetate, pH 8.0 and 1 mM EDTA for 8 hr at 2 V/cm.

[6] = tested on: d(GGCGCAAATTTGGCGG)(SEQ ID NO:1)/d(CCGCCAAATTTGCGCC)(SEQ ID NO:2); conditions: hexadecamer; Browne et al., 1993; cited from earlier work
mice = conditions: cited from earlier work
[7] = tested on: d(CGCA3 T3 GCG (SEQ ID NO:3))2; conditions: 30° C; Pelton et al., 1990; cited from earlier work
[8] = 25 and 50 μM (0.25 and 0.5 ligand/bp DNA)

SMILES | inhibition of DNase I cleavage at the four A+T-rich binding sites ([2]; 5 μM (0.05 ligand/bp DNA)) | inhibition of DNase I cleavage at the four A+T-rich binding sites [2, 8] | RL vs. agent concentration [3] | order of effectiveness in increasing the apparent length of DNA fragments [3] | log KL1 [4] | log KL2 ([4]; pH 7.0, 35° C) | log KHtL ([4]; pH 7.0, 35° C) | log KL1 KL2 ([4]; pH 7.0, 35° C) | change in electrophoretic behavior [3] | also measured
CC(=O)Nc1cc(C(=O)Nc2cc(C(=O)Nc3cc(C(=O)NCCCN(C)C)n(C)c3)n(CCCCNCCN(CCN)CCN)c2)n(C)c1 [Compound 6b] | did not produce detectable inhibition of DNase I cleavage | specific inhibition of cleavage was observed at three of the four sites | quite concentration dependent and sigmoidal in response | 6a^~ 6b>>distamycin>tren | 8.9 ± 0.08 | 9.0 ± 0.2 | 10.3 ± 0.1 | 17.9 | – | activation energy (ΔG*) of exchange [1]: ~ 17 kcal/mol; electrophoretic mobility of DNA restriction fragments ([3]; increasing concentration 20, 40, 60, 80 μM): the mobility of DNA restriction fragments decreases; KL1 (association constant) ([4]; first ligand, hexadecamer A3T3 site, pH 7.0, 35° C): 7.9e+08 M⁻¹ and 8e+08 M⁻¹; complex equilibrium association constants (KL1 KL2) ([4]; hexadecamer, Table I): 8×10^17 M^-2; quenching of Ht fluorescence ([4]; in DNA:Ht:L complex, from Q'): 36%; KL2 ([4]; second ligand, hexadecamer, pH 7.0, 35° C): 1e+09 M⁻¹; inhibition of topoI relaxation of supercoiled pBR322 ([5]; 10 μM): the predominant isomer is the fully supercoiled species; inhibition of topoI after partial relaxation ([5]; 30 μM): inhibited topoI even after pBR322 was considerably unwound; inhibition of topoI relaxation of supercoiled pBR322 ([5]; 30 μM): complete inhibition of topoI
Cn1cc(NC(=O)c2cc(NC(=O)c3cc(NC=O)cn3C)cn2C)cc1C(=O)NCCC(=N)N [Dm, Distamycin] | did not produce detectable inhibition of DNase I cleavage | specific inhibition of cleavage was observed at three of the four sites | does not demonstrate very marked changes even at the highest concentrations examined | 6a^~ 6b>>distamycin>tren | 7.6 ± 0.09 | 8.4 ± 0.08 | 8.8 ± 0.09 | 16.0 | smaller changes at 150 μM (0.66 ligand/bp) than 6a or 6b at 40 μM | equilibrium constant for 1:1 complex formation [6]: 4e+07 M⁻¹; LD50 (mice; i.p.): 500 mg/kg; LD50 (mice; i.v.): 75 mg/kg; rate constant for exchange [7]: 0.2 s⁻¹; enhancements in or increased rates of DNase I cleavage at specific sequences ([2]; highest concentrations, 5'- and 3'-labeled fragments): showed enhancements similar to those found previously; inhibition of topoI after partial relaxation ([5]; 150 μM): no effect; inhibition of topoI relaxation of supercoiled pBR322 ([5]; 150 μM): only partially inhibited; also recorded: partial inhibition
CN1CCN(c2ccc3[nH]c(-c4ccc5[nH]c(-c6ccc(O)cc6)nc5c4)nc3c2)CC1 [Ht, Hoechst 33258] | – | – | – | – | 7.6 and 7.6 ± 0.1 | 9.1 and 9.1 ± 0.2 | – | – | – | –
NCCN(CCN)CCN [Tren, tris(2-aminoethyl)amine] | – | – | – | 6a^~ 6b>>distamycin>tren | – | – | – | – | no apparent change in electrophoretic behavior | –
